Reference: US20080227815A1, “Crystal of Indole Derivative Having Piperidine Ring and Process for Production Thereof” (priority 2005, published 2008)
Where a name gives a salt, the structure may show the parent alone.

Columns and labels:
Rat 5-HT1A = molecular target: T1, Rat 5-HT1A (Rattus norvegicus, UniProt P19327); assay: Affinity for rat serotonin1A receptor ([3H]MPPF binding to rat hippocampal membrane fraction); conditions: pH 7.4, 25° C., 60 min, non-specific binding with 10 μM serotonin, Ki from IC50, tracer concentration and Kd (Scatchard)
T1 construct: A rat hippocampus sample was homogenized in a 50 mM Tris-HCl buffer; from tissue; host or cells: rat hippocampus (membrane fraction)
T1 sequence (P19327 1-422): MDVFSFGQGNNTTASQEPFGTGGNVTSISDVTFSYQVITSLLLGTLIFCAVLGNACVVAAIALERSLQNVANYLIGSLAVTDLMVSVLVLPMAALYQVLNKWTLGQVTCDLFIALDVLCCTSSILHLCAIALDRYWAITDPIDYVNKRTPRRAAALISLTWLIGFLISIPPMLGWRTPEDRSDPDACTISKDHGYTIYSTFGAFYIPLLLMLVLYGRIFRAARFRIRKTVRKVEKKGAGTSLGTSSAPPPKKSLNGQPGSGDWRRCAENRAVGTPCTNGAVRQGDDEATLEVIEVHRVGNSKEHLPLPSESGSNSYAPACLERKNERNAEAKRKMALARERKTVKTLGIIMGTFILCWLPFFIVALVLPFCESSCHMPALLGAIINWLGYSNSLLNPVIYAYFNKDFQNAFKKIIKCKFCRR
Experimental: Test Regarding Affinity for Rat Serotonin1A Receptor
An MPPF rat hippocampal membrane fraction selectively binding to the 5-HT1A receptor was used to test affinity of a test substance for the rat 5-HT1A receptor.
A rat hippocampus sample was homogenized in a 50 mM Tris-HCl buffer (pH 7.4; hereinafter referred to as “buffer A”) that had been cooled with ice. The suspension was centrifuged at 50,000×g for 20 minutes. The obtained sediment was suspended in buffer solution A, and the resultant solution was then centrifuged at 50,000×g for 20 minutes. The obtained sediment was suspended in buffer solution to obtain a rat hippocampus membrane fraction.
The mixture used for incubation contained an appropriate amount of membrane fraction, a test substance at a desired concentration, [^3H]MPPF, dimethyl sulfoxide and buffer A. The reaction was initiated through the addition of the membrane fraction, and the mixture was incubated at 25° C. for 60 minutes. After incubation, the mixture was subjected to vacuum filtration by passing through a glass filter using a Cell Harvester. The filter was washed 3 times with buffer solution A, and then radioactivity binding to the receptor was measured with a liquid scintillation counter. Non-specific binding was defined as binding detected in the presence of 10 μM serotonin. […]

urinary reflex = assay: Inhibitory action against the increased urinary reflex action due to destruction of the superior colliculus in rats (cystometrogram); type: in vivo, rat (Sprague-Dawley; conditions: 1 mg/kg, i.v.; superior colliculus-lesioned female Sprague-Dawley rats; maximal reaction (Emax)
Description: In the present test, Sprague-Dawley female rats (200-350 g) were used. The rats underwent a median incision of the abdomen under anesthesia. A hole with a minor diameter was made on the apex of the bladder, and a catheter used for measurement of an intravesical pressure was placed therein. A catheter used for administration of a test substance was placed in the femoral vein. These catheters were fixed at the occipital region of the rat through the subcutis. One day later, the urinary reflex of the rats was measured with a cystometrogram. Thereafter, the rats were fixed on a brain stereotaxis apparatus under anesthesia, and then subjected to a median incision of the scalp. […] Electric current was then applied (65° C., 4 minutes) so as to damage the brain tissue. After completion of the operation, when the rat awoke from the anesthesia, cystometrogram was conducted again to confirm the increased state of urinary reflex. A test substance was administered through the catheter placed in the femoral vein, and the action of the test substance on urinary reflex was evaluated. In addition, the effects of several test substances were compared using the maximal reaction (Emax).

`CNC(=O)c1ccc2ccn(C3CCN(CCc4c(OC)ccc5c4OC(C)(C)CC5=O)CC3)c2c1` [Form D crystal form of fumarate, 1-{1-[2-(7-methoxy-2,2-dimethyl-4-oxochroman-8-yl)ethyl]piperidin-4-yl}-N-methyl-1H-indole-6-carboxamide fumarate (form D crystal)] was tested, and the Ki (Rat 5-HT1A) was 0.045 nM and the “Urinary interval Emax” value (urinary reflex) was 75%.
